Results: patent US10105357B2, “Indication of antibiotic drugs for preparation of cancer inhibition pharmaceutical composition” (LAUNX BIOMEDICAL CO., LTD., priority 2014, dated 2018)
Counter-ions that a name gives are not always drawn. Like-named read-outs stand apart in the source and are kept apart here.

Columns and labels:
[1] = test system: HCT116 (p53+) (Colorectal Carcinoma)
[2] = test system: HI650 (Lung Adenocarcinoma); assay: Cell viability analysis, lung cancer HI650; assay type: cell-based, human; settings: for viability at 10 µM: Homo sapiens
[3] = test system: HL-60 (Acute Promyelocytic Leukemia); assay: Cell viability analysis, leukemia HL-60; assay type: cell-based, human
[4] = test system: A549 (Lung Adenocarcinoma); assay: Cell viability analysis, lung cancer A549; assay type: cell-based, human; settings: for viability at 10 µM: Homo sapiens, A549
[5] = test system: PC3 (p53−) (Prostate Adenocarcinoma); assay: Cell viability analysis, prostate cancer PC3; assay type: cell-based, human; settings: for viability at 10 µM: Homo sapiens
[6] = test system: AGS (Gastric Adenocarcinoma); assay: Cell viability analysis, gastric cancer AGS; assay type: cell-based, human; settings: for viability at 10 µM: Homo sapiens
[7] = test system: HeLa (Cervix Adenocarcinoma); assay: Cell viability analysis, cervical cancer HeLa; assay type: cell-based, human; settings: for viability at 10 µM: Homo sapiens
[8] = test system: MCF7 (Mammary Gland, Adenocarcinoma); assay: Cell viability analysis, breast cancer MCF7; assay type: cell-based, human; settings: for viability at 10 µM: Homo sapiens
[9] = test system: HepG2 (Hepatocellular Carcinoma); assay: Cell viability analysis, hepatic cancer HepG2; assay type: cell-based, human; settings: for viability at 10 µM: Homo sapiens
[10] = test system: A375 (Amelanotic Melanoma); assay: Cell viability analysis, skin cancer A375; assay type: cell-based, human; settings: for viability at 10 µM: Homo sapiens
[11] = test system: MKN-45 (Gastric Adenocarcinoma); assay: Cell viability analysis, gastric cancer MKN-45; assay type: cell-based, human; settings: for viability at 10 µM: Homo sapiens
[12] = test system: LoVo (Colorectal Adenocarcinoma); assay: Cell viability analysis, colon cancer LoVo; assay type: cell-based, human; settings: for viability at 10 µM: Homo sapiens, LoVo
[13] = test system: TSGH-8301 (Urinary Bladder Carcinoma); assay: Cell viability analysis, bladder cancer TSGH-8301; assay type: cell-based, human; settings: for viability at 10 µM: Homo sapiens
[14] = test system: C-33A (Cervical carcinoma); assay: Cell viability analysis, cervical cancer C-33A; assay type: cell-based, human; settings: Homo sapiens, C-33-A, 72 h, read-out: The results of antibiotic drug inhibiting cancer cell lines (cell viability analysis), C-33A
BxPC-3 = assay: Cell viability analysis, pancreatic cancer BxPC-3; assay type: cell-based, human
NIH: OVCAR-3 = assay: Cell viability analysis, ovarian cancer NIH: OVCAR-3; assay type: cell-based, human; settings: Homo sapiens, OVCAR-3, 72 h, read-out: The results of antibiotic drug inhibiting cancer cell lines (cell viability analysis), NIH-OVCAR-3
AsPC-1 = assay: Cell viability analysis, pancreatic cancer AsPC-1; assay type: cell-based, human
cancer cell lines = assay: Cell viability analysis (WST-1) on cancer cell lines; assay type: cell-based, human; settings: drug 10 μM, 72 hours, WST-1; Table 3
TOV-21G = assay: Cell viability analysis, ovarian cancer TOV-21G; assay type: cell-based, human; settings: Homo sapiens, TOV21G, 72 h, read-out: The results of antibiotic drug inhibiting cancer cell lines (cell viability analysis), TOV-21G
[15] = test system: SAS (Tongue squamous cell carcinoma); assay: Cell viability analysis, tongue cancer SAS; assay type: cell-based, human
T24 = assay: Cell viability analysis, bladder cancer T24; assay type: cell-based, human; settings: Homo sapiens, T-24, 72 h, read-out: The results of antibiotic drug inhibiting cancer cell lines (cell viability analysis), T24
U-2OS = assay: Cell viability analysis, osteosarcoma U-2OS; assay type: cell-based, human; settings: U2OS
[16] = test system: 786-O (Renal adenocarcinoma); assay: Cell viability analysis, renal cancer 786-O; assay type: cell-based, human; settings: Homo sapiens, 786-0, 72 h, read-out: The results of antibiotic drug inhibiting cancer cell lines (cell viability analysis), 786-O
[17] = test system: Hep3B (hepatocellular carcinoma); assay: Cell viability analysis, hepatic cancer Hep3B; assay type: cell-based, human; settings: Homo sapiens, Hep3B, 72 h, read-out: The results of antibiotic drug inhibiting cancer cell lines (cell viability analysis), Hep3B
[18] = test system: MDA-MB-231 (Mammary Gland, Adenocarcinoma); assay: Cell viability analysis, breast cancer MDA-MB-231; assay type: cell-based, human; settings: Homo sapiens, MDA-MB-231, 72 h, read-out: The results of antibiotic drug inhibiting cancer cell lines (cell viability analysis), MDA-MB231
[19] = test system: BCC (basal cell carcinoma); assay: Cell viability analysis, skin cancer BCC; assay type: cell-based, human
[20] = drug 10 μM, 72 hours, WST-1, OD450 nm

## O=C([O-])C(O)[C@H](O)[C@@H](O)[C@H](O)[C@H](O)CO.O=C([O-])C(O)[C@H](O)[C@@H](O)[C@H](O)[C@H](O)CO.[Ca+2] (stereo partly shown) [Calcium Gluceptate]
[1]; drug 10 μM, 72 hours, WST-1, OD450 nm, head HCT116 / HCT116(WT)
  cell viability (survival rate), HCT116: 74.09
[2]; [20]
  cell viability (survival rate), H1650: 54.25
[3]; [20]
  cell viability (survival rate), HL-60: 113.4525
[4]; [20]
  cell viability (survival rate), A549: 24.91
[5]; [20]
  cell viability (survival rate), PC3: 37.91
[6]; [20]
  cell viability (survival rate), AGS: 79.67
[7]; [20]
  cell viability (survival rate), HeLa: 43.93
[8]; [20]
  cell viability (survival rate), MCF7: 34.24
[9]; [20]
  cell viability (survival rate), HepG2: 76.88
[10]; [20]
  cell viability (survival rate), A375: 36.97
[11]; [20]
  cell viability (survival rate), MKN-45: 74.23
[12]; [20]
  cell viability (survival rate), LoVo: 55.29
[13]; [20]
  cell viability (survival rate), TSGH: 33.81

## Cc1cc(C(C)(C)C)cc(C)c1CC1=NCCN1 [Xylometazoline HCl]
[2]; NCI-H1650, 72 h, H1650, repeated experiment, read-out: The results of antibiotic drug inhibiting cancer cell lines (cell viability analysis), H1650
  viability at 10 µM: 95.3%
[2]; NCI-H1650, drug 10 μM, 72 hours, WST-1, OD450 nm, read-out: cell viability (survival rate), H1650
  viability at 10 µM: 33.4%
[14]
  viability at 10 µM: 104%
BxPC-3; Homo sapiens, BXPC-3, 72 h, read-out: The results of antibiotic drug inhibiting cancer cell lines (cell viability analysis), BxPC-3
  viability at 10 µM: 72.9%
[3]; Homo sapiens, HL-60, drug 10 μM, 72 hours, WST-1, OD450 nm, read-out: cell viability (survival rate), HL-60
  viability at 10 µM: 84.9%
[4]; 72 h, repeated experiment, read-out: The results of antibiotic drug inhibiting cancer cell lines (cell viability analysis), A549
  viability at 10 µM: 83%
[4]; drug 10 μM, 72 hours, WST-1, OD450 nm, read-out: cell viability (survival rate), A549
  viability at 10 µM: 74.7%
NIH: OVCAR-3
  viability at 10 µM: 102%
AsPC-1; Homo sapiens, ASPC1, 72 h, read-out: The results of antibiotic drug inhibiting cancer cell lines (cell viability analysis), AsPC-1
  viability at 10 µM: 82.8%
Cancer cell lines
  inhibition effect on different cancer cell lines: significant inhibition effect
[5]; 72 h, PC-3, repeated experiment, read-out: The results of antibiotic drug inhibiting cancer cell lines (cell viability analysis), PC-3
  viability at 10 µM: 116%
[5]; drug 10 μM, 72 hours, WST-1, OD450 nm, read-out: cell viability (survival rate), PC3
  viability at 10 µM: 54.8%
TOV-21G
  viability at 10 µM: 92.3%
[15]; Homo sapiens, 72 h, read-out: The results of antibiotic drug inhibiting cancer cell lines (cell viability analysis), SAS
  viability at 10 µM: 76.4%
[6]; 72 h, AGS, repeated experiment, read-out: The results of antibiotic drug inhibiting cancer cell lines (cell viability analysis), AGS
  viability at 10 µM: 125%
[6]; drug 10 μM, 72 hours, WST-1, OD450 nm, read-out: cell viability (survival rate), AGS
  viability at 10 µM: 52.2%
T24
  viability at 10 µM: 92.5%
[7]; 72 h, HeLa, repeated experiment, read-out: The results of antibiotic drug inhibiting cancer cell lines (cell viability analysis), HeLa
  viability at 10 µM: 117%
[7]; HeLa, drug 10 μM, 72 hours, WST-1, OD450 nm, read-out: cell viability (survival rate), HeLa
  viability at 10 µM: 107%
[8]; MCF7, 72 h, MCF-7, repeated experiment, read-out: The results of antibiotic drug inhibiting cancer cell lines (cell viability analysis), MCF-7
  viability at 10 µM: 90.1%
[8]; MCF7, drug 10 μM, 72 hours, WST-1, OD450 nm, read-out: cell viability (survival rate), MCF7
  viability at 10 µM: 94.4%
[9]; 72 h, HepG2, repeated experiment, read-out: The results of antibiotic drug inhibiting cancer cell lines (cell viability analysis), HepG2
  viability at 10 µM: 106%
[9]; HepG2, drug 10 μM, 72 hours, WST-1, OD450 nm, read-out: cell viability (survival rate), HepG2
  viability at 10 µM: 83%
[10]; A-375, 72 h, A375, repeated experiment, read-out: The results of antibiotic drug inhibiting cancer cell lines (cell viability analysis), A375
  viability at 10 µM: 102%
[10]; A-375, drug 10 μM, 72 hours, WST-1, OD450 nm, read-out: cell viability (survival rate), A375
  viability at 10 µM: 65.1%
U-2OS; Homo sapiens, 72 h, read-out: The results of antibiotic drug inhibiting cancer cell lines (cell viability analysis), U2OS
  viability at 10 µM: 60.2%
[16]
  viability at 10 µM: 100%
[11]; 72 h, MKN-45, repeated experiment, read-out: The results of antibiotic drug inhibiting cancer cell lines (cell viability analysis), MKN-45
  viability at 10 µM: 121%
[11]; MKN-45, drug 10 μM, 72 hours, WST-1, OD450 nm, read-out: cell viability (survival rate), MKN-45
  viability at 10 µM: 65.8%
[17]
  viability at 10 µM: 114%
[18]
  viability at 10 µM: 96.3%
[12]; 72 h, repeated experiment, read-out: The results of antibiotic drug inhibiting cancer cell lines (cell viability analysis), LoVo
  viability at 10 µM: 88.7%
[12]; drug 10 μM, 72 hours, WST-1, OD450 nm, read-out: cell viability (survival rate), LoVo
  viability at 10 µM: 47.1%
[19]; Homo sapiens, 72 h, read-out: The results of antibiotic drug inhibiting cancer cell lines (cell viability analysis), BCC
  viability at 10 µM: 116%
[13]; 72 h, TSGH-8301, repeated experiment, read-out: The results of antibiotic drug inhibiting cancer cell lines (cell viability analysis), TSGH-8301
  viability at 10 µM: 122%
[13]; drug 10 μM, 72 hours, WST-1, OD450 nm, read-out: cell viability (survival rate), TSGH
  viability at 10 µM: 42.6%

## CC1(C)S[C@@H]2[C@H](NC(=O)[C@H](N)c3ccc(O)cc3)C(=O)N2[C@H]1C(=O)[O-].[Na+] [Amoxicillin sodium (Amox), Amoxicillin sodium]
[1]
  viability: 112%
[2]; H1650, repeated experiment
  The results of antibiotic drug inhibiting cancer cell lines (cell viability analysis), H1650: 87.81
[2]; [20]
  cell viability (survival rate), H1650: 43.3
BxPC-3; BxPC-3, repeated experiment
  The results of antibiotic drug inhibiting cancer cell lines (cell viability analysis), BxPC-3: 71.08
[4]; [20]
  cell viability (survival rate), A549: 60.6
AsPC-1; AsPC-1, repeated experiment
  The results of antibiotic drug inhibiting cancer cell lines (cell viability analysis), AsPC-1: 88.13
Cancer cell lines
  inhibition effect on different cancer cell lines: significant inhibition effect
[5]; PC-3, repeated experiment
  The results of antibiotic drug inhibiting cancer cell lines (cell viability analysis), PC-3: 127.2
[5]; [20]
  cell viability (survival rate), PC3: 74.8
[15]; SAS, repeated experiment
  The results of antibiotic drug inhibiting cancer cell lines (cell viability analysis), SAS: 66.94
[6]; AGS, repeated experiment
  The results of antibiotic drug inhibiting cancer cell lines (cell viability analysis), AGS: 128.2
[6]; [20]
  cell viability (survival rate), AGS: 51.2
[7]; HeLa, repeated experiment
  The results of antibiotic drug inhibiting cancer cell lines (cell viability analysis), HeLa: 112.6
[7]; [20]
  cell viability (survival rate), HeLa: 81.0
[8]; [20]
  cell viability (survival rate), MCF7: 60.4
[9]; HepG2, repeated experiment
  The results of antibiotic drug inhibiting cancer cell lines (cell viability analysis), HepG2: 124.5
[9]; [20]
  cell viability (survival rate), HepG2: 80.8
[10]; A375, repeated experiment
  The results of antibiotic drug inhibiting cancer cell lines (cell viability analysis), A375: 115.9
[10]; [20]
  cell viability (survival rate), A375: 78.5
U-2OS; repeated experiment
  The results of antibiotic drug inhibiting cancer cell lines (cell viability analysis), U2OS: 65.21
[11]; MKN-45, repeated experiment
  The results of antibiotic drug inhibiting cancer cell lines (cell viability analysis), MKN-45: 110.7
[11]; [20]
  cell viability (survival rate), MKN-45: 63.2
[12]; [20]
  cell viability (survival rate), LoVo: 69.1
[19]; BCC, repeated experiment
  The results of antibiotic drug inhibiting cancer cell lines (cell viability analysis), BCC: 115.1
[13]; TSGH-8301, repeated experiment
  The results of antibiotic drug inhibiting cancer cell lines (cell viability analysis), TSGH-8301: 129.6
[13]; [20]
  cell viability (survival rate), TSGH: 45.4

## CCn1cc(C(=O)O)c(=O)c2cc(F)c(N3CCNC(C)C3)c(F)c21.Cl (stereo not shown) [Lomefloxacin HCl (Maxaquin)]
[1]
  cell viability (survival rate), HCT116: 113.4
[2]
  cell viability (survival rate), H1650: 56.6
[3]
  cell viability (survival rate), HL-60: 96.5
[4]
  cell viability (survival rate), A549: 70.7
[5]
  cell viability (survival rate), PC3: 63.3
[6]
  cell viability (survival rate), AGS: 77.5
[7]
  cell viability (survival rate), HeLa: 135.0
[8]
  cell viability (survival rate), MCF7: 83.5
[9]
  cell viability (survival rate), HepG2: 90.5
[10]
  cell viability (survival rate), A375: 87.7
[11]
  cell viability (survival rate), MKN-45: 92.7
[12]
  cell viability (survival rate), LoVo: 88.9
[13]
  cell viability (survival rate), TSGH: 61.2
